Drawing on patent EP1083874B1, “Use of a compound for the preparation of a medicament for treating alopecia or promoting hair growth in an animal” (GPI NIL Holdings, Inc., priority 1998, dated 1999), this text covers Ki for ten compounds.

SMILES strings stand for the structures. pKi: −log10 of the molar value.

This experiment has as its target FKBP12 (Homo sapiens, UniProt P62942). In words: Ki test procedure: inhibition of peptidyl-prolyl isomerase (rotamase) activity, chymotrypsin-coupled assay. The settings on record: apparent Ki. It is filed as biochemical. The source says:
The inhibition of the prolyl peptidyl cis-trans isomerase activity of FKBP may be measured as an indicator of this affinity.
Inhibition of the peptidyl-prolyl isomerase (rotamase) activity of the compounds used in the pharmaceutical compositions can be evaluated by known methods described in the literature (Harding et al., Nature, 1989, 341:758-760; Holt et al. J. Am. Chem. Soc., 115:9923-9938).
The cis-trans isomerization of an alanine-proline bond in a model substrate, N-succinyl-Ala-Ala-Pro-Phe-p-nitroanilide, is monitored spectrophotometrically in a chymotrypsin-coupled assay, which releases para-nitroanilide from the trans form of the substrate. The inhibition of this reaction caused by the addition of different concentrations of inhibitor is determined, and the data is analyzed as a change in first-order rate constant as a function of inhibitor concentration to yield the apparent Ki values.
In a plastic cuvette are added […] of ice cold assay buffer (25 mM HEPES, pH 7.8, 100 mM NaCl), 10 mL of FKBP (2.5 mM in 10 mM Tris-Cl pH 7.5, 100 mM NaCl, 1 mM dithiothreitol), 25 mL of chymotrypsin (50 mg/ml in 1 mM HCl) and […] of test compound at various concentrations in dimethyl sulfoxide. The reaction is initiated by the addition of 5 mL of substrate (succinyl-Ala-Phe-Pro-Phe-para-nitroanilide, 5 mg/mL in 2.35 mM LiCl in trifluoroethanol).
The absorbance at 390 nm versus time is monitored for 90 seconds using a spectrophotometer and the rate constants are determined from the absorbance versus time data files.

Chain of FKBP12 (P62942 whole entry, species assumed): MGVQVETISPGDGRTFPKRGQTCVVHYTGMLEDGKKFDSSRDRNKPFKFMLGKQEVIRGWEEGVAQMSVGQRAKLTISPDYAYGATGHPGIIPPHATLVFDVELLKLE

The pKi is −log10 of the Ki, conventionally taken in molar units. As for `COC(=O)C(=O)N1CCCC[C@H]1C(=O)OCCCC1CCCC1` [Compound 19], the negative-log Ki (pKi) was 4.46.
With `COc1cc(C(=O)C(=O)N2CCCC[C@H]2C(=O)OCCCCc2ccccc2)cc(OC)c1OC` [Compound 23] the figure was 7.72.
With `O=C(C(=O)N1CCCC[C@H]1C(=O)OCc1ccccc1)c1ccccc1` [Compound 10] the figure was 5.82; with `O=C(C(=O)N1CCCC[C@H]1C(=O)OCCc1ccccc1)c1ccccc1` [Compound 14], 5.96; with `O=C(C(=O)N1CCCC[C@H]1C(=O)OCCCCc1ccccc1)c1ccccc1` [Compound 13], 6.46.
Then `COC(=O)C(=O)N1CCCC[C@H]1C(=O)OCCCC1CCCCC1` [Compound 18], with 4.70.
For `O=C(C(=O)N1CCCC[C@H]1C(=O)OCc1ccccc1)c1ccco1` [Compound 20], the pKi was 5.52.
Then `COC(=O)C(=O)N1CCCC[C@H]1C(=O)OCc1ccccc1` [Compound 16], with 4.10; and `O=C(C(=O)N1CCCC[C@H]1C(=O)OCCCCC1CCCCC1)c1ccccc1` [Compound 15], with 6.40.
Turning to `COc1ccc(CCCCOC(=O)[C@@H]2CCCCN2C(=O)C(=O)c2cc(OC)c(OC)c(OC)c2)cc1` [Compound 25], the pKi was 7.89.
